From PubChem BioAssay AID1963422 (Molecular Pharmacology Branch, DTP, NCI, 2024)
Several values for one entry are separate records, joined by “and”; a condition that tells them apart may be missing. Equal entries are not always repeated.

Test system: 463943-066-T-J2-PDC complex spheroid growth
Test: Anticancer human tumor 463943-066-T-J2-PDC patient-derived colon adenocarcinoma cell line growth inhibition [Asc]
Details: for viability, T/C: stronger effect = lower value
In short: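 Stromal components (HUVEC and hMSC) are co-assembled with the cancer cells into multicellular spheroids. Drugs are then added singly or paired, at concentrations falling by half-log increments from a clinically achievable maximum, capped at 10 microM without known Cmax.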

[1] = curve of first compound, second compound 0.00949 µM
[2] = curve of first compound, second compound 0.03 µM
[3] = curve of first compound, second compound 0.0949 µM
[4] = curve of first compound, second compound 0.3 µM
[5] = curve of first compound, second compound 0.949 µM
[6] = curve of first compound, second compound 3 µM
[7] = second compound 0.00949 µM, first compound 0.00316 µM
[8] = second compound 0.00949 µM, first compound 0.01 µM
[9] = second compound 0.00949 µM, first compound 0.0316 µM
[10] = second compound 0.00949 µM, first compound 0.1 µM
[11] = second compound 0.00949 µM, first compound 0.316 µM
[12] = second compound 0.00949 µM, first compound 1 µM
[13] = second compound 0.03 µM, first compound 0.00316 µM
[14] = second compound 0.03 µM, first compound 0.01 µM
[15] = second compound 0.03 µM, first compound 0.0316 µM
[16] = second compound 0.03 µM, first compound 0.1 µM
[17] = second compound 0.03 µM, first compound 0.316 µM
[18] = second compound 0.03 µM, first compound 1 µM
[19] = second compound 0.0949 µM, first compound 0.00316 µM
[20] = second compound 0.0949 µM, first compound 0.01 µM
[21] = second compound 0.0949 µM, first compound 0.0316 µM
[22] = second compound 0.0949 µM, first compound 0.1 µM
[23] = second compound 0.0949 µM, first compound 0.316 µM
[24] = second compound 0.0949 µM, first compound 1 µM
[25] = second compound 0.3 µM, first compound 0.00316 µM
[26] = second compound 0.3 µM, first compound 0.01 µM
[27] = second compound 0.3 µM, first compound 0.0316 µM
[28] = second compound 0.3 µM, first compound 0.1 µM
[29] = second compound 0.3 µM, first compound 0.316 µM
[30] = second compound 0.3 µM, first compound 1 µM
[31] = second compound 0.949 µM, first compound 0.00316 µM
[32] = second compound 0.949 µM, first compound 0.01 µM
[33] = second compound 0.949 µM, first compound 0.0316 µM
[34] = second compound 0.949 µM, first compound 0.1 µM
[35] = second compound 0.949 µM, first compound 0.316 µM
[36] = second compound 0.949 µM, first compound 1 µM
[37] = second compound 3 µM, first compound 0.00316 µM
[38] = second compound 3 µM, first compound 0.01 µM
[39] = second compound 3 µM, first compound 0.0316 µM
[40] = second compound 3 µM, first compound 0.1 µM
[41] = second compound 3 µM, first compound 0.316 µM
[42] = second compound 3 µM, first compound 1 µM
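Further: compound exposure lasted 7 days.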
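Wherever viability, T/C is given: 100% = DMSO vehicle control wells.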

## CNC(C)C(=O)NC1CN(S(=O)(=O)c2cccc(S(=O)(=O)N3CCC4CCC(C(=O)NC(c5ccccc5)c5ccccc5)N4C(=O)C(NC(=O)C(C)NC)C3)c2)CCC2CCC(C(=O)NC(c3ccccc3)c3ccccc3)N2C1=O (stereo not drawn) + CCN1C(C(=O)NC23CCC(C(=O)O)(CC2)CC3)C(c2cccc(Cl)c2F)C2(C(=O)Nc3cc(Cl)ccc32)C12CCCCC2
[1]
  IC50: > 1000 nM
[2]
  IC50: > 1000 nM
[3]
  IC50: > 1000 nM
[4]
  IC50: > 1000 nM
[5]
  IC50: > 1000 nM
[6]
  IC50: > 1000 nM
[7]
  viability, T/C: 96.9%
[8]
  viability, T/C: 93.3%
[9]
  viability, T/C: 99.3%
[10]
  viability, T/C: 93.7%
[11]
  viability, T/C: 95.9%
[12]
  viability, T/C: 86.8%
[13]
  viability, T/C: 103%
[14]
  viability, T/C: 96.6%
[15]
  viability, T/C: 89.4%
[16]
  viability, T/C: 93.2%
[17]
  viability, T/C: 95%
[18]
  viability, T/C: 85%
[19]
  viability, T/C: 94.2%
[20]
  viability, T/C: 93.2%
[21]
  viability, T/C: 81.9%
[22]
  viability, T/C: 89.3%
[23]
  viability, T/C: 91.8%
[24]
  viability, T/C: 86.1%
[25]
  viability, T/C: 83.8%
[26]
  viability, T/C: 81.1%
[27]
  viability, T/C: 82.1%
[28]
  viability, T/C: 81.9%
[29]
  viability, T/C: 84.6%
[30]
  viability, T/C: 81%
[31]
  viability, T/C: 73.1%
[32]
  viability, T/C: 85.1%
[33]
  viability, T/C: 76.1%
[34]
  viability, T/C: 75.8%
[35]
  viability, T/C: 76.8%
[36]
  viability, T/C: 71.5%
[37]
  viability, T/C: 71.1%
[38]
  viability, T/C: 73.2%
[39]
  viability, T/C: 74.7%
[40]
  viability, T/C: 69.3%
[41]
  viability, T/C: 75.5%
[42]
  viability, T/C: 69.4%

## CCN1CCN(Cc2ccc(Nc3ncc(F)c(-c4cc(F)c5nc(C)n(C(C)C)c5c4)n3)nc2)CC1 + CCN1C(C(=O)NC23CCC(C(=O)O)(CC2)CC3)C(c2cccc(Cl)c2F)C2(C(=O)Nc3cc(Cl)ccc32)C12CCCCC2
[1]
  IC50: > 1000 nM
[2]
  IC50: > 1000 nM
[3]
  IC50: > 1000 nM
[4]
  IC50: > 1000 nM
[5]
  IC50: > 1000 nM
[6]
  IC50: > 1000 nM
[7]
  viability, T/C: 99.6%
[8]
  viability, T/C: 92.3%
[9]
  viability, T/C: 91.4%
[10]
  viability, T/C: 96.2%
[11]
  viability, T/C: 110%
[12]
  viability, T/C: 113%
[13]
  viability, T/C: 94.8%
[14]
  viability, T/C: 93.2%
[15]
  viability, T/C: 92.7%
[16]
  viability, T/C: 92.5%
[17]
  viability, T/C: 104%
[18]
  viability, T/C: 109%
[19]
  viability, T/C: 91.4%
[20]
  viability, T/C: 90.8%
[21]
  viability, T/C: 84.2%
[22]
  viability, T/C: 92%
[23]
  viability, T/C: 96.2%
[24]
  viability, T/C: 106%
[25]
  viability, T/C: 85.6%
[26]
  viability, T/C: 76.9%
[27]
  viability, T/C: 80.3%
[28]
  viability, T/C: 78%
[29]
  viability, T/C: 88.9%
[30]
  viability, T/C: 106%
[31]
  viability, T/C: 74.5%
[32]
  viability, T/C: 75.5%
[33]
  viability, T/C: 76.2%
[34]
  viability, T/C: 75.4%
[35]
  viability, T/C: 81.5%
[36]
  viability, T/C: 99.4%
[37]
  viability, T/C: 72.5%
[38]
  viability, T/C: 71.8%
[39]
  viability, T/C: 71.8%
[40]
  viability, T/C: 74.4%
[41]
  viability, T/C: 88.8%
[42]
  viability, T/C: 103%

## O=C(c1ccc(F)c(F)c1Nc1ccc(I)cc1F)N1CC(O)([C@@H]2CCCCN2)C1
Compound 0.00316 µM
  viability, T/C: 88.3% and 95.1% and 104%
Compound 0.01 µM
  viability, T/C: 79.2% and 78% (2×)
Compound 0.0316 µM
  viability, T/C: 71.1% and 60.7% and 77.5%
Compound 0.1 µM
  viability, T/C: 57.1% and 58.9% and 75.6%
Compound 0.316 µM
  viability, T/C: 39.7% and 42% and 51.9%
Compound 1 µM
  viability, T/C: 29% and 29.9% and 35.8%
Curve of compound
  IC50: 159 nM and 140 nM and 397 nM

## Cc1c(S(C)(=O)=O)c(-c2cc(F)cc(N3CCN(c4ccc(NS(=O)(=O)c5ccc(NC(CCN6CCC(C(=O)OCCCP(=O)(O)O)CC6)CSc6ccccc6)c(S(=O)(=O)C(F)(F)F)c5)cc4)CC3)c2)c(-c2ccc(Cl)cc2)n1C(C)C (stereo not drawn)
Compound 0.0316 µM
  viability, T/C: 96.2% [middle of 7 runs]
Compound 0.1 µM
  viability, T/C: 94.8% [middle of 7 runs]
Compound 0.316 µM
  viability, T/C: 87.8% [middle of 7 runs]
Compound 1 µM
  viability, T/C: 78% [middle of 7 runs]
Compound 3.16 µM
  viability, T/C: 62.6% [middle of 7 runs]
Compound 10 µM
  viability, T/C: 56.5% [middle of 7 runs]
Compound alone, run of 11/07/2022
  IC50: > 10000 nM
